Experimental data from patent publication US20240067632A1, “WEE1 Degrading Compounds and Uses Thereof” (Bristol-Myers Squibb Company, priority 2022, published 2024).
Like-named read-outs stand apart in the source and are kept apart here.

Key:
WEE1 = biological target: T1, WEE1 (Homo sapiens, UniProt P30291+Q96SW2); assay: WEE1-ePL degradation assay (LentiX-WEE1-ePL-GSPT1-ND cells, InCELL Hunter luminescence, 4 h); format: cell-based; conditions: 293T-LentiX WEE1-ePL cells; for DC50: read-out: 293T-LentiX WEE1-ePL Degradation 4 hr (EC50)
T1 construct: C-terminal ePL-tagged (DiscoverX, Fremont, CA) full-length WEE1 expression construct; expressed in transfected cells; host or cells: LentiX-HEK293T (Invitrogen), lentiviral transduction; co-expressing GSPT1-GN (G576N, lacking the first 158 amino acids)
Summary of the method: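 First, compounds were pre-plated as 10-point, 3-fold dilutions (top 1 uM or 10 uM) with DMSO control; next, WEE1-ePL-expressing HEK293T cells were added and held 4 h at 37 °C; finally, InCELL Hunter reagent was applied for 30 min before luminescence reading. A 4PL fit gave EC50 and Ymin.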

MKN45 cells = assay: MKN45 cell proliferation assay (Cell-Titer-Glo, 120 h); format: cell-based; conditions: for EC50: Homo sapiens, MKN-45, 120 h, Cell-Titer-Glo, read-out: MKN45 Cell Prolif. 120 hr (EC50); for MKN45 Cell Prolif. 120 hr (Ymin-Obs): minimal percent of DMSO control observed in the concentrations tested
Summary of the method: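 Growth inhibition was read as blank-corrected Cell-Titer-Glo luminescence expressed as percent DMSO control after 120 h at 37 C, 400 cells/well. Compounds tested in triplicate as 10-point half-log series from 1 or 10 uM, 0.1% DMSO; four-parameter fit gave EC50, and lowest observed percent control was reported as Ymin-obs.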

[1] = lower limit of the fit (0 = luciferase inhibitor, Ymax = DMSO control)
[2] = lower limit of the fit (Ymin=0 luciferase inhibitor, Ymax DMSO control)

Compound	293T-LentiX WEE1-ePL Degradation 4 hr (Ymin) (WEE1; [1])	DC50 (WEE1) [nM]	EC50 (MKN45 cells; growth inhibition) [nM]	293T-LentiX WEE1-ePL Degradation 4 hr (Ymin) (WEE1; [2])	EC50 (MKN45 cells) [nM]	MKN45 Cell Prolif. 120 hr (Ymin-Obs) (MKN45 cells)
CC(C)(O)c1ccc2cc(CN3CC[C@H](Oc4ccc5c(c4)CN(C4CCC(=O)NC4=O)C5=O)C3)ncc2c1 (stereo partly drawn) [3-(5-{[(3S)-1-{[7-(2-hydroxypropan-2-yl)isoquinolin-3-yl]methyl}pyrrolidin-3-yl]oxy}-1-oxo-2,3-dihydro-1H-isoindol-2-yl)piperidine-2,6-dione]	31	5.41	16.2	–	–	7.18
COC(C)(C)c1ccc2cc(CN3CC[C@H](Oc4ccc5c(c4)CN(C4CCC(=O)NC4=O)C5=O)C3)ncc2c1 (stereo partly drawn) [3-(5-{[(3S)-1-{[7-(2-methoxypropan-2-yl)isoquinolin-3-yl]methyl}pyrrolidin-3-yl]oxy}-1-oxo-2,3-dihydro-1H-isoindol-2-yl)piperidine-2,6-dione]	32	1.21	6.04	–	–	11.51
COCc1ccc2cc(CN3CC[C@H](Oc4ccc5c(c4)CN(C4CCC(=O)NC4=O)C5=O)C3)ncc2c1 (stereo partly drawn) [3-(5-{[(3S)-1-{[7-(methoxymethyl)isoquinolin-3-yl]methyl}pyrrolidin-3-yl]oxy}-1-oxo-2,3-dihydro-1H-isoindol-2-yl)piperidine-2,6-dione]	30	1.42	2.85	–	–	8.95
CNc1ccc2cc(CN3CC[C@H](Oc4ccc5c(c4)CN(C4CCC(=O)NC4=O)C5=O)C3)ncc2c1 (stereo partly drawn) [3-(5-{[(3S)-1-{[7-(methylamino)isoquinolin-3-yl]methyl}pyrrolidin-3-yl]oxy}-1-oxo-2,3-dihydro-1H-isoindol-2-yl)piperidine-2,6-dione]	32	9.01	42.1	–	–	12.46
O=C1CCC(N2Cc3cc(O[C@H]4CCN(Cc5cc6ccc(N7CCOCC7)cc6cn5)C4)ccc3C2=O)C(=O)N1 (stereo partly drawn) [3-(5-{[(3S)-1-{[7-(morpholin-4-yl)isoquinolin-3-yl]methyl}pyrrolidin-3-yl]oxy}-1-oxo-2,3-dihydro-1H-isoindol-2-yl)piperidine-2,6-dione]	36	3.82	3.17	–	–	6.72
O=C1CCC(N2Cc3cc(O[C@H]4CCN(Cc5cc6ccc(C7CCOCC7)cc6cn5)C4)ccc3C2=O)C(=O)N1 (stereo partly drawn) [3-(5-{[(3S)-1-{[7-(oxan-4-yl)isoquinolin-3-yl]methyl}pyrrolidin-3-yl]oxy}-1-oxo-2,3-dihydro-1H-isoindol-2-yl)piperidine-2,6-dione]	29.75	1.46	2.09	–	–	8.822
O=C1CCC(N2Cc3cc(O[C@H]4CCN(Cc5cc(F)c6nc(C7CCOCC7)ccc6c5)C4)ccc3C2=O)C(=O)N1 (stereo partly drawn) [3-(5-{[(3S)-1-{[8-fluoro-2-(oxan-4-yl)quinolin-6-yl]methyl}pyrrolidin-3-yl]oxy}-1-oxo-2,3-dihydro-1H-isoindol-2-yl)piperidine-2,6-dione]	28	1.24	1.09	–	–	7.098
C[C@@H]1CN(Cc2cc(F)c3nc([C@H]4CCOC4)ccc3c2)C[C@H]1Oc1ccc2c(c1)CN(C1CCC(=O)NC1=O)C2=O (stereo partly drawn) [3-(5-{[(3S,4R)-1-({8-fluoro-2-[(3R)-oxolan-3-yl]quinolin-6-yl}methyl)-4-methylpyrrolidin-3-yl]oxy}-1-oxo-2,3-dihydro-1H-isoindol-2-yl)piperidine-2,6-dione]	–	1.56	–	30.53	1.3	8.038
Cc1ccc2cc(CN3C[C@@H](C)[C@H](Oc4ccc5c(c4)CN(C4CCC(=O)NC4=O)C5=O)C3)ccc2n1 (stereo partly drawn) [3-(5-{[(3S,4R)-4-methyl-1-[(2-methylquinolin-6-yl)methyl]pyrrolidin-3-yl]oxy}-1-oxo-2,3-dihydro-1H-isoindol-2-yl)piperidine-2,6-dione]	33	3.1	17.5	–	–	12.51
Cc1ccc2cc(CN3C[C@H](C)[C@H](Oc4ccc5c(c4)CN(C4CCC(=O)NC4=O)C5=O)C3)ccc2n1 (stereo partly drawn) [3-(5-{[(3S,4S)-4-methyl-1-[(2-methylquinolin-6-yl)methyl]pyrrolidin-3-yl]oxy}-1-oxo-2,3-dihydro-1H-isoindol-2-yl)piperidine-2,6-dione]	88.5	–	> 10000	–	–	85.96
Cc1ccc2cc(CN3C[C@@H](Oc4ccc5c(c4)CN(C4CCC(=O)NC4=O)C5=O)C[C@H]3C)ccc2n1 (stereo partly drawn) [3-(5-{[(3S,5R)-5-methyl-1-[(2-methylquinolin-6-yl)methyl]pyrrolidin-3-yl]oxy}-1-oxo-2,3-dihydro-1H-isoindol-2-yl)piperidine-2,6-dione]	88.5	–	> 10000	–	–	80.29

Further lines, with some results ahead:

293T-LentiX WEE1-ePL Degradation 4 hr (Ymin) (WEE1; [1])	DC50 (WEE1) [nM]	EC50 (MKN45 cells; growth inhibition) [nM]	293T-LentiX WEE1-ePL Degradation 4 hr (Ymin) (WEE1; [2])	EC50 (MKN45 cells) [nM]	Compound	MKN45 Cell Prolif. 120 hr (Ymin-Obs) (MKN45 cells)
27.43	4.25	4.65	–	–	C[C@@H]1CN(Cc2ccc3nc([C@@H]4CCOC(C)(C)C4)ccc3c2)C[C@H]1Oc1ccc2c(c1)CN(C1CCC(=O)NC1=O)C2=O (stereo partly drawn) [3-(5-{[(3S,4R)-1-({2-[(4R)-2,2-dimethyloxan-4-yl]quinolin-6-yl}methyl)-4-methylpyrrolidin-3-yl]oxy}-1-oxo-2,3-dihydro-1H-isoindol-2-yl) piperidine-2,6-dione]	9.178
24.37	1.94	0.918	–	–	C[C@@H]1CN(Cc2ccc3nc([C@H]4CCOC(C)(C)C4)ccc3c2)C[C@H]1Oc1ccc2c(c1)CN(C1CCC(=O)NC1=O)C2=O (stereo partly drawn) [3-(5-{[(3S,4R)-1-({2-[(4S)-2,2-dimethyloxan-4-yl]quinolin-6-yl}methyl)-4-methylpyrrolidin-3-yl]oxy}-1-oxo-2,3-dihydro-1H-isoindol-2-yl)piperidine-2,6-dione]	8.183
–	13.1	–	35.15	26.8	O=C1CCC(N2Cc3cc(O[C@@H]4CN(Cc5ccc6nc(C7CCOCC7)ccc6c5)C[C@H]4C(F)(F)F)ccc3C2=O)C(=O)N1 (stereo partly drawn) [3-(5-{[(3S,4R)-1-{[2-(oxan-4-yl)quinolin-6-yl]methyl}-4-(trifluoromethyl)pyrrolidin-3-yl]oxy}-1-oxo-2,3-dihydro-1H-isoindol-2-yl)piperidine-2,6-dione]	28.55
–	1.13	–	27.42	1.49	C[C@@H]1CN(Cc2cc(F)c3nc(C4CCOCC4)ccc3c2)C[C@H]1Oc1ccc2c(c1)CN(C1CCC(=O)NC1=O)C2=O (stereo partly drawn) [3-(5-{[(3S,4R)-1-{[8-fluoro-2-(oxan-4-yl)quinolin-6-yl]methyl}-4-methylpyrrolidin-3-yl]oxy}-1-oxo-2,3-dihydro-1H-isoindol-2-yl)piperidine-2,6-dione]	7.781
–	1.41	–	33.41	2.32	C[C@@H]1CN(Cc2ccc3nc([C@H]4CCOC4)ccc3c2)C[C@H]1Oc1ccc2c(c1)CN(C1CCC(=O)NC1=O)C2=O (stereo partly drawn) [3-(5-{[(3S,4R)-4-methyl-1-({2-[(3R)-oxolan-3-yl]quinolin-6-yl}methyl)pyrrolidin-3-yl]oxy}-1-oxo-2,3-dihydro-1H-isoindol-2-yl)piperidine-2,6-dione]	10.26
–	1.95	–	33.96	3.67	C[C@@H]1CN(Cc2ccc3nc([C@@H]4CCOC4)ccc3c2)C[C@H]1Oc1ccc2c(c1)CN(C1CCC(=O)NC1=O)C2=O (stereo partly drawn) [3-(5-{[(3S,4R)-4-methyl-1-({2-[(3S)-oxolan-3-yl]quinolin-6-yl}methyl)pyrrolidin-3-yl]oxy}-1-oxo-2,3-dihydro-1H-isoindol-2-yl)piperidine-2,6-dione]	10.01
27.68	2.71	3.52	–	–	C[C@@H]1CN(Cc2ccc3nc(C4CCOCC4)ccc3c2)C[C@H]1Oc1ccc2c(c1)CN(C1CCC(=O)NC1=O)C2=O (stereo partly drawn) [3-(5-{[(3S,4R)-4-methyl-1-{[2-(oxan-4-yl)quinolin-6-yl]methyl}pyrrolidin-3-yl]oxy}-1-oxo-2,3-dihydro-1H-isoindol-2-yl)piperidine-2,6-dione]	9.683
–	3.08	–	29.16	1.89	COC[C@@H]1CN(Cc2ccc3nc(C4CCOCC4)ccc3c2)C[C@H]1Oc1ccc2c(c1)CN(C1CCC(=O)NC1=O)C2=O (stereo partly drawn) [3-(5-{[(3S,4S)-4-(methoxymethyl)-1-{[2-(oxan-4-yl)quinolin-6-yl]methyl}pyrrolidin-3-yl]oxy}-1-oxo-2,3-dihydro-1H-isoindol-2-yl)piperidine-2,6-dione]	9.504
